The values that follow are results of earlier work, collected in US20190209596A1, “METHODS OF TREATING DISEASES” (Boehringer Ingelheim International GmbH, priority 2015, published 2019).

The conditions of this data set: metformin on its own, in the diabetic.

Turning to `CN(C)C(=N)N=C(N)N` [metformin], the “average improvement in the HbA1c value” is given as 1.0-1.5%.
